Measured values from patent US9469642B2, “Purinone compounds as kinase inhibitors” (Pharmacyclics LLC, priority 2012, dated 2016).
Counter-ions that a name gives are not always drawn.

Key:
Type in all cases: biochemical
[1] = molecular target: T1, BTK (Homo sapiens, UniProt Q06187); assay: Btk in vitro inhibitory activity (kinase assay by one of Methods A, B or C)
T1 construct: purified from insect cells as a full-length construct containing a N-terminal 6×-His tag; His6 (N); host or cells: insect cells (baculovirus Sf21)
T1 sequence (Q06187 whole entry): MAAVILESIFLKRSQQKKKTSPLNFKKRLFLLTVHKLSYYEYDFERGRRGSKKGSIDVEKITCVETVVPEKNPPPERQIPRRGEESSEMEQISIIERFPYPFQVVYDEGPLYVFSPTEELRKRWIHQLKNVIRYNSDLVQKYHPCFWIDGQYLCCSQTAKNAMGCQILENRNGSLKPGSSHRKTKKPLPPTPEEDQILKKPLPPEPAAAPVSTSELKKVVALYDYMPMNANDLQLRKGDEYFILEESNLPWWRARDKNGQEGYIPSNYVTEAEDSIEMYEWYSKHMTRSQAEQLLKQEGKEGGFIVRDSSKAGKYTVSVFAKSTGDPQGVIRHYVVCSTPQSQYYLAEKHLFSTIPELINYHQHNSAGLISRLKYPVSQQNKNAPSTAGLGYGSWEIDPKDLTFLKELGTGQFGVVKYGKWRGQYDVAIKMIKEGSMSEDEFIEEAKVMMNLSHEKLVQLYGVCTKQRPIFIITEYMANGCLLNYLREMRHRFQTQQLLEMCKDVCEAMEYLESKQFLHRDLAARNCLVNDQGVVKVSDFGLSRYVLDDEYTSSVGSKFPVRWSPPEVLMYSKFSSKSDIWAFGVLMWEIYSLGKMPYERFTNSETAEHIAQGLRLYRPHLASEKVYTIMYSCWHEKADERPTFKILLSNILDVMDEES
Method: (§1) Btk kinase activity is determined using a time-resolved fluorescence resonance energy transfer (TR-FRET) methodology. Measurements are performed in a reaction volume of 50 μL using 96-well assay plates. Kinase enzyme, inhibitor, ATP (at the Km for the kinase), and 1 peptide substrate (Biotin-AVLESEEELYSSARQ-NH2) are incubated in a reaction buffer composed of 20 mM Tris, 50 mM NaCl, MgCl2 (5-25 mM depending on the kinase), MnCl2 (0-10 mM), 1 mM DTT, 0.1 mM EDTA, 0.01% bovine serum albumin, 0.005% Tween-20, and 10% DMSO at pH 7.4 for one hour. The reaction is quenched by the addition of 1.2 equivalents of EDTA (relative to divalent cation) in 25 μL of 1× Lance buffer (Perkin-Elmer). Streptavidin-APC (Perkin-Elmer) and Eu-labeled p-Tyr100 antibody (Perkin-Elmer) in 1× Lance buffer are added in a 25 μL volume to give final concentrations of 100 nM and 2.5 nM, respectively, and the mixture is allowed to incubate for one hour. The TR-FRET signal is measured on a multimode plate reader with an excitation wavelength (λEx) of 330 nm and detection wavelengths (λEm) of 615 and 665 nm. Activity is determined by the ratio of the fluorescence at 665 nm to that at 615 nm. For each compound, enzyme activity is measured at various concentrations of compound. Negative control reactions are performed in the absence of inhibitor in replicates of six, and two no-enzyme controls are used to determine baseline fluorescence levels. Inhibition constants, Ki(app), were obtained using the program BatchKi (Kuzmic et al. (2000), Anal. Biochem. 286:45-50). IC50s are obtained according to the equation: IC50=[…]+[E]total/2;
(§2) For all kinases, [ATP]=Km^ATP, [Btk]total=0.5 nM and [Lck]total=6 nM.
(§3) Kinase activity is measured in vitro using electrophoretic mobility shift assay. The kinase reactions are assembled in a total volume of 25 μL in 384 well plates. The reactions comprise: BTK enzyme (1 nM, N-terminal His6-tagged, recombinant, full-length, human BTK purified from baculovirus Sf21 insect cell system), inhibitor, ATP (16 μM, the apparent Km for the kinase), fluorescently labeled peptide substrate (1 μM, FAM-GEEPLYWSFPAKKK-NH2) in a reaction buffer composed of 100 mM HEPES, pH7.5, 5 mM MgCl2 1 mM DTT, 0.1% bovine serum albumin, 0.01% Triton X-100, and 1% DMSO. The reaction is incubated for one hour and is quenched by the addition of 45 μL of termination buffer (100 mM HEPES, pH7.5, 0.01% Triton X-100, 30 mM EDTA). The terminated reactions are analyzed using 12 channel LabChip® 3000 microfluidic detection instrument (Caliper Life Sciences). The enzymatic phosphorylation of the peptide results in a change in net charge, enabling electrophoretic separation of product from substrate peptide. As substrate and product peptides are separated, two peaks of fluorescence are observed. Change in the relative fluorescence intensity of the substrate and product peaks is the parameter measured, reflecting enzyme activity. In the presence of an inhibitor, the ratio between product and substrate is altered:the signal of the product decreases, while the signal of the substrate increases.
(§4) Activity in each sample is determined as the product to sum ratio (PSR):P/(S+P), where P is the peak height of the product peptide and S is the peak height of the substrate peptide. For each compound, enzyme activity is measured at various concentrations (12 concentrations of compound spaced by 3× dilution intervals). Negative control samples (0%-inhibition in the absence of inhibitor) and positive control samples (100%-inhibition, in the presence of 20 mM EDTA) are assembled in replicates of four and are used to calculate %-inhibition values for each inhibitor at each concentration. Percent inhibition (Pinh) is determined using following equation: […]

[2] = molecular target: EGFR (Homo sapiens, UniProt P00533); assay: Kinase panel inhibition, EGFR (one of the methods of Example 76a, 76b, 76c)
Sequence of EGFR (P00533 25-1210, species assumed): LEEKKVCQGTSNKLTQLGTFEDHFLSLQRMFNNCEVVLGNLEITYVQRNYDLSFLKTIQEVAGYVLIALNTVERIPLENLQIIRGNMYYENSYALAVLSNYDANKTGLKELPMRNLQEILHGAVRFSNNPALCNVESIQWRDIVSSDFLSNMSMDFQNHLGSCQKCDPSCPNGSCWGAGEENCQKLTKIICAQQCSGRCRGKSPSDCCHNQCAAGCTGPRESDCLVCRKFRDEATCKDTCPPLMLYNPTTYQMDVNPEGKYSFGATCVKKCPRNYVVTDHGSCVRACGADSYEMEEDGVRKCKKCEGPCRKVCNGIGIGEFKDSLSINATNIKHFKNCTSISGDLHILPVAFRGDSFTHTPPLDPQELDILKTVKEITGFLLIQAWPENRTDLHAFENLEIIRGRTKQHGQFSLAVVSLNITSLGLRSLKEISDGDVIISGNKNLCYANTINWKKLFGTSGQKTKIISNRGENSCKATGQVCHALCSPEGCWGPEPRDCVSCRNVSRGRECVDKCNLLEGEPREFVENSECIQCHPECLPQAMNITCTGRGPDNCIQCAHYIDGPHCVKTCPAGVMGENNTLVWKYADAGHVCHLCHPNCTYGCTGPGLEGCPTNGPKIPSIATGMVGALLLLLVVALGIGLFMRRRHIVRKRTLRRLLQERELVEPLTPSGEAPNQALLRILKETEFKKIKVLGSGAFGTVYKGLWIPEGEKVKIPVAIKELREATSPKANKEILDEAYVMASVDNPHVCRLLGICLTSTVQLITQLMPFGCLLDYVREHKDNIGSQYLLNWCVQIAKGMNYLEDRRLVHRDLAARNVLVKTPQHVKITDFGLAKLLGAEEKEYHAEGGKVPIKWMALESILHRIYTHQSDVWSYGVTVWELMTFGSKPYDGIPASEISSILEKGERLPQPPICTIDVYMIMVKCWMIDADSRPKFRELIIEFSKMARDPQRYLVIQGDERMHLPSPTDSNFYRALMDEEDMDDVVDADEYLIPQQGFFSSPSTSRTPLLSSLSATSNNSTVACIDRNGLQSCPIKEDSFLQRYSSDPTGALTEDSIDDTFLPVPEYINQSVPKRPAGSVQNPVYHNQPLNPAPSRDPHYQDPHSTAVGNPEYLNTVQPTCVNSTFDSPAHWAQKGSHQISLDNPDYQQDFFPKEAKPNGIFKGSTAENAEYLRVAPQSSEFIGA
Method: as §1, §2, §3, §4

[3] = molecular target: LCK (Homo sapiens, UniProt P06239); assay: Kinase panel inhibition, LCK (one of the methods of Example 76a, 76b, 76c)
Sequence of LCK (P06239 whole entry, species assumed): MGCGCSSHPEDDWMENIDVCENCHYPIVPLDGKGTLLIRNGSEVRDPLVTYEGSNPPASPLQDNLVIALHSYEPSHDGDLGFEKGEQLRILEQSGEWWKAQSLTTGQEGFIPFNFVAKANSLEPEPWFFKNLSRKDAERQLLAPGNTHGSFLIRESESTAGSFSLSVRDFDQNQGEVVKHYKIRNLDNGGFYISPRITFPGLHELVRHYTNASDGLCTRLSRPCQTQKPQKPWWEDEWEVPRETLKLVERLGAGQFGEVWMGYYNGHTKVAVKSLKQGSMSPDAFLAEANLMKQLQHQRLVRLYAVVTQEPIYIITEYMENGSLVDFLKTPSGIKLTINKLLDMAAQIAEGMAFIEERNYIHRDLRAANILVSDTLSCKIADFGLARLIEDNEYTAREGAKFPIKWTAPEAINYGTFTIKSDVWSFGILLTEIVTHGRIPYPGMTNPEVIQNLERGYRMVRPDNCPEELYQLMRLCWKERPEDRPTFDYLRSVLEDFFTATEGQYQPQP
Method: as §1, §2, §3, §4

COc1cc(-n2c(=O)n(-c3ccc(N(C)C(=O)/C=C/CN(C)C)cc3)c3ncnc(N)c32)ccc1C [Compound 54, (E)-N-(4-(6-amino-7-(3-methoxy-4-methylphenyl)-8-oxo-7H-purin-9(8H)-yl)phenyl)-4-(dimethylamino)-N-methylbut-2-enamide]
IC50 [1]: < 100 nM
IC50 [2]: 1000 to 10000 nM
IC50 [3]: 1000 to 10000 nM

CN(C)C/C=C/C(=O)Nc1cccc(-n2c(=O)n(-c3ccc(Oc4ccccc4)cc3)c3c(N)ncnc32)c1 [Compound 8, (E)-N-(3-(6-amino-8-oxo-7-(4-phenoxyphenyl)-7H-purin-9(8H)-yl)phenyl)-4-(dimethylamino)but-2-enamide]
IC50 [1]: < 100 nM
IC50 [2]: < 100 nM
IC50 [3]: 100 to 1000 nM

CNC/C=C/C(=O)N(C)c1cccc(-n2c(=O)n(-c3ccc(Oc4ccccc4)cc3)c3c(N)ncnc32)c1 [Compound 229, (E)-N-(3-(6-amino-8-oxo-7-(4-phenoxyphenyl)-7H-purin-9(8H)-yl)phenyl)-N-methyl-4-(methylamino)but-2-enamide hydrochloride]
IC50 [1]: < 100 nM
IC50 [2]: < 100 nM
IC50 [3]: 1000 to 10000 nM

CN(C(=O)/C=C/CN(C)C1CC1)c1ccc(-n2c(=O)n(-c3ccc(Oc4ccccc4)cc3)c3c(N)ncnc32)cc1 [Compound 44, (E)-N-(4-(6-amino-8-oxo-7-(4-phenoxyphenyl)-7H-purin-9(8H)-yl)phenyl)-4-(cyclopropyl(methyl)amino)-N-methylbut-2-enamide]
IC50 [1]: < 100 nM
IC50 [2]: 1000 to 10000 nM
IC50 [3]: 100 to 1000 nM

CN(C/C=C/C(=O)Nc1cccc(-n2c(=O)n(-c3ccc(Oc4ccccc4)cc3)c3c(N)ncnc32)c1)C1CC1 [Compound 9, (E)-N-(3-(6-amino-8-oxo-7-(4-phenoxyphenyl)-7H-purin-9(8H)-yl)phenyl)-4-(cyclopropyl(methyl)amino)but-2-enamide]
IC50 [1]: < 100 nM
IC50 [2]: < 100 nM
IC50 [3]: 100 to 1000 nM

CN(C(=O)/C=C/CN(C)C1CC1)c1cccc(-n2c(=O)n(-c3ccc(Oc4ccccc4)cc3)c3c(N)ncnc32)c1 [Compound 34, (E)-N-(3-(6-amino-8-oxo-7-(4-phenoxyphenyl)-7H-purin-9(8H)-yl)phenyl)-4-(cyclopropyl(methyl)amino)-N-methylbut-2-enamide]
IC50 [1]: < 100 nM
IC50 [2]: 100 to 1000 nM
IC50 [3]: 1000 to 10000 nM

CN(C)C/C=C/C(=O)N(C)c1cccc(-n2c(=O)n(-c3ccc(Cl)cc3)c3c(N)ncnc32)c1 [Compound 27, (E)-N-(3-(6-amino-7-(4-chlorophenyl)-8-oxo-7H-purin-9(8H)-yl)phenyl)-4-(dimethylamino)-N-methylbut-2-enamide]
IC50 [1]: < 100 nM
IC50 [2]: > 10000 nM
IC50 [3]: > 10000 nM

COCCOc1cc(N(C)C(=O)/C=C/CN(C)C)cc(-n2c(=O)n(-c3ccc(C)c(OC)c3)c3c(N)ncnc32)c1 [Compound 147, (E)-N-(3-(6-amino-7-(3-methoxy-4-methylphenyl)-8-oxo-7H-purin-9(8H)-yl)-5-(2-methoxyethoxy)phenyl)-4-(dimethylamino)-N-methylbut-2-enamide]
IC50 [1]: < 100 nM
IC50 [2]: > 10000 nM
IC50 [3]: > 10000 nM

CN(C(=O)/C=C/c1cn(C)cn1)c1cccc(-n2c(=O)n(-c3ccc(Oc4ccccc4)cc3)c3c(N)ncnc32)c1 [Compound 327, (E)-N-(3-(6-amino-8-oxo-7-(4-phenoxyphenyl)-7H-purin-9(8H)-yl)phenyl)-N-methyl-3-(1-methyl-1H-imidazol-4-yl)acrylamide]
IC50 [1]: 100 to 1000 nM
IC50 [2]: 1000 to 10000 nM
IC50 [3]: 1000 to 10000 nM

CN(C(=O)/C=C/CN(C)[C@@H]1CCOC1)c1cccc(-n2c(=O)n(-c3ccc(Oc4ccccc4)cc3)c3c(N)ncnc32)c1 [Compound 129, (R,E)-N-(3-(6-amino-8-oxo-7-(4-phenoxyphenyl)-7H-purin-9(8H)-yl)phenyl)-N-methyl-4-(methyl(tetrahydrofuran-3-yl)amino)but-2-enamide]
IC50 [1]: < 100 nM
IC50 [2]: 1000 to 10000 nM
IC50 [3]: 1000 to 10000 nM

CN(C(=O)/C=C/CN(C)[C@H]1CCOC1)c1cccc(-n2c(=O)n(-c3ccc(Oc4cccc(F)c4)cc3)c3c(N)ncnc32)c1 [Compound 309, (S,E)-N-(3-(6-amino-7-(4-(3-fluorophenoxy)phenyl)-8-oxo-7H-purin-9(8H)-yl)phenyl)-N-methyl-4-(methyl(tetrahydrofuran-3-yl)amino)but-2-enamide]
IC50 [1]: < 100 nM
IC50 [2]: 1000 to 10000 nM
IC50 [3]: 1000 to 10000 nM

CN(C)C/C=C/C(=O)N(C)[C@H]1CC[C@@H](n2c(=O)n(-c3ccc(Oc4ccccc4)cc3)c3c(N)ncnc32)CC1 [Compound 328, (E)-N-((1s,4s)-4-(6-amino-8-oxo-7-(4-phenoxyphenyl)-7H-purin-9(8H)-yl)cyclohexyl)-4-(dimethylamino)-N-methylbut-2-enamide]
IC50 [1]: < 100 nM
IC50 [2]: < 100 nM
IC50 [3]: < 100 nM

COc1ccc(-n2c(=O)n(-c3ccc(Oc4ccccc4)cc3)c3c(N)ncnc32)cc1N(C)C(=O)/C=C/CN(C)C1CC1 [Compound 171, (E)-N-(5-(6-amino-8-oxo-7-(4-phenoxyphenyl)-7H-purin-9(8H)-yl)-2-methoxyphenyl)-4-(cyclopropyl(methyl)amino)-N-methylbut-2-enamide]
IC50 [1]: < 100 nM
IC50 [2]: 1000 to 10000 nM
IC50 [3]: 1000 to 10000 nM

COc1cc(NC(=O)/C=C/CN(C)C2CC2)cc(-n2c(=O)n(-c3ccc(Oc4ccccc4)cc3C)c3c(N)ncnc32)c1 [Compound 301, (E)-N-(3-(6-amino-7-(2-methyl-4-phenoxyphenyl)-8-oxo-7H-purin-9(8H)-yl)-5-methoxyphenyl)-4-(cyclopropyl(methyl)amino)but-2-enamide]
IC50 [1]: < 100 nM
IC50 [2]: 100 to 1000 nM
IC50 [3]: 1000 to 10000 nM

CN(C)C/C=C/C(=O)N(C)c1ccc(-n2c(=O)n(-c3ccc(Oc4ccccc4)cc3)c3c(N)ncnc32)cc1 [Compound 43, (E)-N-(4-(6-amino-8-oxo-7-(4-phenoxyphenyl)-7H-purin-9(8H)-yl)phenyl)-4-(dimethylamino)-N-methylbut-2-enamide]
IC50 [1]: < 100 nM
IC50 [2]: 1000 to 10000 nM
IC50 [3]: 100 to 1000 nM

Cc1cccc(COc2ccc(-n3c(=O)n(-c4cccc(N(C)C(=O)/C=C/CN(C)C5CC5)c4)c4ncnc(N)c43)cc2)c1 [Compound 239, (E)-N-(3-(6-amino-7-(4-(3-methylbenzyloxy)phenyl)-8-oxo-7H-purin-9(8H)-yl)phenyl)-4-(cyclopropyl(methyl)amino)-N-methylbut-2-enamide]
IC50 [1]: < 100 nM
IC50 [2]: 1000 to 10000 nM
IC50 [3]: > 10000 nM

Cc1ccc(N(C)C(=O)/C=C/CN(C)C2CC2)cc1-n1c(=O)n(-c2ccc(Oc3ccccc3)cc2)c2c(N)ncnc21 [Compound 191, (E)-N-(3-(6-amino-8-oxo-7-(4-phenoxyphenyl)-7H-purin-9(8H)-yl)-4-methylphenyl)-4-(cyclopropyl(methyl)amino)-N-methylbut-2-enamide]
IC50 [1]: 100 to 1000 nM
IC50 [2]: > 10000 nM
IC50 [3]: > 10000 nM

CN(C)C/C=C/C(=O)N1CC[C@@H](n2c(=O)n(-c3ccc(Cl)cc3)c3c(N)ncnc32)C1 [Compound 67, (R,E)-6-amino-7-(4-chlorophenyl)-9-(1-(4-(dimethylamino)but-2-enoyl)pyrrolidin-3-yl)-7H-purin-8(9H)-one]
IC50 [1]: 100 to 1000 nM
IC50 [2]: > 10000 nM
IC50 [3]: 1000 to 10000 nM
